Measurements published in patent publication US10421782B2, “Cyclic cationic peptides with antimicrobial activity” (I.C.F. S.R.L., priority 2012, dated 2019).
Like-named read-outs stand apart in the source and are kept apart here.

Experiments:
[1] = tested on: Malassezia pachydermatis ATCC 14522; test: Broth-microdilution test and subsequent plating on agar, fungi (yeasts); assay type: cell-based; conditions: 2 h contact at 37° C., CFU count on agar Sabouraud
Protocol: (§1) The inoculum was set up by culturing Candida albicans ATCC 10231 and Malassezia pachydermatis ATCC 14522 in Czapek-Dox broth medium (DIFCO) for 48-72 h. On the assay day, the fungal culture was centrifuged at 1700×g for 15 min, the pellet was resuspended in phosphate buffer and submitted to shaking by the use of an electric vortex to disperse the fungal cell aggregates. The suspension was diluted until an optical density equal to an opacity of 0.5 on the McFarland turbidimetric scale was reached, which contains approximately 1-5×10^6 cell/ml (Branda J. A., Krantz A. Effectc of yeast on automated cell counting. Am J Clin Pathol., 2006:126, 248-254).
(§2) The peptides were tested for their ability to inhibit fungal growth. Fifty microliters of peptide at a concentration comprised between about 0.2 mM and about 50 mM were added in 96-well U-bottom plates containing phosphate buffer and one of the following fungi: Candida albicans ATCC 10231 and Malassezia pachydermatis ATCC 14522. After 2 h incubation at 37° C., fungi were transferred on the solid medium agar Sabouraud. As a control, fungal cultures were cultured in the absence of peptide.
(§3) The fungal suspension was put in contact for two hours with different concentrations of the peptide at the temperature of 37° C. After incubation, 20 μl were drawn from the wells of each dilution and seeded on the solid medium agar Sabouraud. The inoculum was evenly distributed on the agarized medium by means of a sterile disposable loop. After incubation for 24 h at the temperature of 37° C., counting of the fungal colonies (CFU) was performed.

[2] = tested on: Candida albicans ATCC 10231; test: as above; assay type: cell-based; conditions: 2 h contact at 37° C., CFU count on agar Sabouraud
Protocol: as §1, §2, §3

[3] = tested on: P. aeruginosa ATCC 27853; assay type: cell-based, Pseudomonas aeruginosa; conditions: ATCC 27853, 2 h
Protocol: Several peptides were tested for their ability to inhibit bacterial growth in liquid culture. Fifty microliters of peptide at a concentration between about 0.2 mM and 50 mM were added in 96-well U-bottom plates containing phosphate buffer 10 mM supplemented with 125 or 250 mM NaCl and one of the following bacteria: Escherichia coli ATCC 25922, P. aeruginosa ATCC 27853. After 2 hour incubation at 37° C., bacteria were transferred on a solid medium. As a growth control, the bacterial cultures were cultured in the absence of peptides.
The bacterial suspension was put in contact for two hours with different concentrations of the peptide at the temperature of 37° C. After incubation, 20 μl were drawn from the wells of each dilution and seeded on the solid medium agar McConkey for Gram-negative bacteria and Columbia agar supplemented with 5% bovine red blood cells for Gram-positive bacteria. The inoculum was evenly distributed on the agarized medium by means of a sterile disposable loop. After incubation for 24 h at the temperature of 37° C., counting of the colony forming units (CFU) was performed.
In table 6A, the antimicrobial activity against E. coli ATCC 25922, Pseudomonas aeruginosa ATCC 27853 in the presence of […] NaCl is reported.

CC[C@H](C)[C@@H]1NC(=O)[C@H](CCCCN)NC(=O)[C@H](C)NC(=O)[C@@H](NC(=O)[C@H](CCCCN)NC(=O)[C@@H](N)Cc2c[nH]cn2)CSSC[C@@H](C(=O)N[C@@H](C)C(=O)O)NC(=O)[C@H](Cc2ccc(O)cc2)NC(=O)[C@H](CCCCN)NC(=O)[C@H](C(C)C)NC(=O)[C@H](Cc2c[nH]cn2)NC(=O)[C@H](C(C)C)NC(=O)CNC(=O)[C@H](CCCNC(=N)N)NC(=O)[C@H](Cc2c[nH]c3ccccc23)NC(=O)[C@H](CCCCN)NC1=O (relative stereo) [Peptide P2041, HIS*LYS*CYS*ALA*LYS*ILE*LYS*TRP*ARG*GLY*VAL*HIS*VAL*LYS*TYR*CYS*ALA]
LD90 Malassezia pachydermatis [1]: 0.85 µM | LD90 Candida albicans [2]: 1.42 µM | Antimicrobial activity (percentage of CFU growth inhibition) P. aeruginosa ([3]; 12.5 μg/ml): 100% | Antimicrobial activity (percentage of CFU growth inhibition) P. aeruginosa ([3]; 100 μg/ml): 100%
